Data as given in patent US4740498A, “Fibronectin preparations” (Green Cross Corporation, priority 1984, dated 1988).

Tested on: corneal epithelium of rabbits
Test: Therapeutic effect in model of corneal disturbance (refrigeration trauma on the corneal epithelium)
Assay type: in vivo
Settings: 400 μg/ml into the eyes, FN = eye drops of Example 2, albumin = control
Method: The therapeutic effect of the FN preparations of the present invention was examined using a model of corneal disturbance in rabbits. The model was prepared by applying liquid nitrogen to the eyes of rabbits to cause refrigeration trauma on the corneal epithelium. The FN eye drops prepared in Example 2 were administered into the eyes thus suffering from corneal disturbance at a dose of 400 μg-FN/ml, and the wound surface area was measured with the passage of time. As a control, 400 μg/ml of albumin was used.

Albumin
Wound Surface Area, 0 Day (0 Day): 45 mm^2 | Wound Surface Area, 1 Day (1 Day): 31 mm^2 | Wound Surface Area, 2 Days (2 Days): 33 mm^2 | Wound Surface Area, 3 Days (3 Days): 25 mm^2 | Wound Surface Area, 4 Days (4 Days): 14 mm^2
